For the assay, the target named is leukotriene receptor. Description: leukotriene receptor binding assay (RBL-1). Conditions: Bruns et al. The source says: The usefulness of the compounds of Formula I is particularly directed to the treatment of humans. By virtue of the activity of the compounds having the Formula I of the present invention as antagonists of Slow Reacting Substance of Anaphylaxis (leukotrienes C, D, and E) are useful in the treatment of allergic rhinitis, asthma, bronchitis, and urticaria. They are also particularly useful for the treatment of cardiovascular diseases mediated by leukotrienes, C, D, and E. See B. Samuelsson, "Leukotrienes: Mediators of Immediate Hypersensitivity Reactions and Inflammation,"Science, Vol. 220, p. 568 (1983); P. J. Piper, "Leukotrienes," Trends in Pharmaceutic Sciences, pp. 75-77 (1983; and J. L. Romson, et al, "Reduction of the Extent of Ischemic Myocardial Injury by Neutrophil Depletion in the Dog," Circulation, Vol. 67, p. 1016 (1983). The activity of the compounds I of the present invention is determined in a leukotriene receptor binding assay (RBL-1) described by R. F. Bruns, W. J. Thomsen, and T. A. Pugsley in Life Sciences, 33, p. 645 (1983).
When tested by the procedures in a leukotriene receptor binding assay (RBL-1) as described by Bruns et al cited above, the compounds of the Formula I as defined in the present invention have the indicated activity as shown in Table 5 as IC50 values expressed in μMs (micromolar).

`CCCCCCCCN=C1SC(=CC(=O)O)C(=O)N1CCCCCCCC` [Example 1, [3-Octyl-2-(octylimino)-4-oxo-5-thiazolidinylidene]acetic acid] registered an IC50 of 19 µM.

`CCN=C1SC(=CC(=O)O)C(=O)N1CC` [Example 2, [3-Ethyl-2-(ethylimino)-4-oxo-5-thiazolidinylidene]acetic acid] showed a 50% inhibitory concentration (IC50) of over 100 µM.

Consider `CCCCCN=C1SC(=CC(=O)O)C(=O)N1CCCCC` [Example 3, [3-Pentyl-2-(pentylimino)-4-oxo-5-thiazolidinylidene]acetic acid], for which the IC50 turned out to be 15.4 µM.

`CCCCCCN=C1SC(=CC(=O)O)C(=O)N1CCCCCC` [Example 4, [3-Hexyl-2-(hexylimino)-4-oxo-5-thiazolidinylidene]acetic acid] returned an IC50 of 24.5 µM.

`COc1cc(N=C2SC(=CC(=O)O)C(=O)N2c2cc(OC)c(OC)c(OC)c2)cc(OC)c1OC` [Example 6, [4-Oxo-3-(3,4,5-trimethoxyphenyl)-2-[(3,4,5-trimethoxyphenyl)imino]-5-thiazolidinylidene]acetic acid]: the IC50 was over 100 µM.

Regarding `COc1ccc(N=C2SC(=CC(=O)O)C(=O)N2c2ccc(OC)cc2)cc1` [Example 7, [4-Oxo-3-(4-methoxyphenyl)-2-[(4-methoxyphenyl)imino]-5-thiazolidinylidene]acetic acid], the half-inhibitory concentration (IC50) was over 100 µM.

Consider `CCCN=C1SC(=CC(=O)O)C(=O)N1CCC` [Example 8, [4-Oxo-3-propyl-2-(propylimino)-5-thiazolidinylidene]acetic acid], for which the 50% inhibitory concentration (IC50) was over 100 µM.

`CCCCN=C1SC(=CC(=O)O)C(=O)N1CCCC` [Example 9, [3-Butyl-2-(butylimino)-4-oxo-5-thiazolidinylidene]acetic acid] displayed an IC50 of over 100 µM.

Molecule `COc1ccccc1N=C1SC(=CC(=O)O)C(=O)N1c1ccccc1OC` [Example 10, [3-(2-Methoxyphenyl)-2-[(2-methoxyphenyl)imino]-4-oxo-5-thiazolidinylidene]acetic acid] returned a 50% inhibitory concentration (IC50) of over 100 µM.

Molecule `CCCCCCN1C(=O)C(=CC(=O)O)SC1=Nc1ccc(Cl)c(Cl)c1` [Example 11, [2-[(3,4-dichlorophenyl)imino]-3-hexyl-4-oxo-5-thiazolidinylidene]acetic acid] showed a half-maximal inhibitory concentration (IC50) of 12.2 µM.

Turning to `CN1C(=O)C(=CC(=O)O)SC1=Nc1ccc(Cl)c(Cl)c1` [Example 12, [2-[(3,4-dichlorophenyl)imino]-3-methyl-4-oxo-5-thiazolidinylidene]acetic acid], the IC50 is over 100 µM.

The molecule `CCCCCCN1C(=O)C(=CC(=O)O)SC1=Nc1ccccc1` [Example 13, [3-Hexyl-4-oxo-2-(phenylimino)-5-thiazolidinylidene]acetic acid] returned an IC50 of 39.2 µM. In other words, the double-digit micromolar range.

Molecule `O=C(O)C=C1SC(=NCCc2ccccc2)N(CCc2ccccc2)C1=O` [Example 15, [4-Oxo-3-(2-phenylethyl)-2-[(2-phenylethyl)imino]-5-thiazolidinylidene]acetic acid] returned an IC50 of over 100 µM.

For `CCCCCCCCCCCN=C1SC(=CC(=O)O)C(=O)N1CCCCCCCCCCC` [Example 16, [3-Undecyl-2-(undecylimino)-4-oxo-5-thiazolidinylidene]acetic acid], the IC50 is over 100 µM.

`CCCCCCN1C(=O)C(=CC(=O)O)SC1=Nc1cccc2ccccc12` [Example 17, [3-Hexyl-2-[(1-naphthalenyl)imino]-4-oxo-5-thiazolidinylidene]acetic acid]: the IC50 stood at 10.3 µM.

As to `CCCCCCCN=C1SC(=CC(=O)O)C(=O)N1CCCCCCC` [Example 18, [3-Heptyl-2-(heptylimino)-4-oxo-5-thiazolidinylidene]acetic acid], the IC50 was 12.7 µM.

For `CCCCCCCCCCN=C1SC(=CC(=O)O)C(=O)N1CCCCCCCCCC` [Example 19, [3-Decyl-2-(decylimino)-4-oxo-5-thiazolidinylidene]acetic acid], the IC50 was over 100 µM.

Regarding `CCCCCCCCCCCCN=C1SC(=CC(=O)O)C(=O)N1CCCCCCCCCCCC` [Example 20, [3-Dodecyl-2-(dodecylimino)-4-oxo-5-thiazolidinylidene]acetic acid], the half-maximal inhibitory concentration (IC50) is over 100 µM.

`O=C(O)C=C1SC(=Nc2ccc(Cl)c(Cl)c2)N(c2ccc(Cl)c(Cl)c2)C1=O` [Example 21, [4-oxo-3-(3,4-dichlorophenyl)-2-[(3,4-dichlorophenyl)imino]-5-thiazolidinylidene]acetic acid] registered an IC50 of 15.6 µM.

Turning to `O=C(O)C=C1SC(=Nc2ccc(Br)c(Br)c2)N(c2ccc(Br)c(Br)c2)C1=O` [Example 22, [4-Oxo-3-(3,4-dibromophenyl)-2-[(3,4-dibromophenyl)imino]-5-thiazolidinylidene]acetic acid], the IC50 amounted to 18.9 µM.

Regarding `O=C(O)C=C1SC(=Nc2cc(Cl)c(Cl)c(Cl)c2)N(c2cc(Cl)c(Cl)c(Cl)c2)C1=O` [Example 23], the half-inhibitory concentration (IC50) came to 13.1 µM.

Take `COc1cccc(N=C2SC(=CC(=O)O)C(=O)N2c2cccc(OC)c2)c1` [Example 24, [3-(3-Methoxyphenyl)-2-[(3-methoxyphenyl)imino]-4-oxo-5-thiazolidinylidene]acetic acid]: the concentration for half-maximal inhibition (IC50) was over 100 µM.

For `O=C(O)C=C1SC(=NC2CCCCC2)N(C2CCCCC2)C1=O` [Example 25, [3-Cyclohexyl-2-(cyclohexylimino)-4-oxo-5-thiazolidinylidene]acetic acid], the IC50 was 62.5 µM.

The record behind these values is US4775677A, “[3-substituted-2-(substituted imino)-4-oxo-5-thiazolidinylidene]acetic acids having activity as leukotriene antagonists” (Warner-Lambert Company, priority 1987, dated 1988).
